We go through nine molecules from PubChem BioAssay (NCI).

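Five concentrations, 48 hours, 96-well plates. GI50: concentration for 50% inhibition of growth. TGI: total growth inhibition.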

Among the test systems are 786-0 renal; HCT-116 colon; HCT-15 colon; IGROV1 ovarian; OVCAR-3 ovarian; SK-OV-3 ovarian; SN12C renal; SNB-75 CNS; U251 CNS; UACC-62 melanoma.
Holding throughout (assay): NCI-60 cell line screen, 48 h

`C=C(COC(C)=O)CC(/C=C(\C)CCC=C(C)C)OC(C)=O` (stereo not drawn): the TGI in the assay on 786-0 renal, with HCT-116 colon, in the assay with HCT-15 colon, in the assay on IGROV1 ovarian, in the assay with OVCAR-3 ovarian and in the assay with SK-OV-3 ovarian was greater than 100 µM each time. In addition, the TGI with SN12C renal, in the assay on SNB-75 CNS, in the assay with U251 CNS and in the assay with UACC-62 melanoma was greater than 100 µM throughout.
In the case of `C[C@H]1CCC/C=C/[C@@H]2C[C@H](N)C[C@H]2[C@H](O)/C=C/C(=O)O1`, the GI50 in the assay on 786-0 renal, in the assay with HCT-116 colon, in the assay with HCT-15 colon, in the assay on IGROV1 ovarian, in the assay with OVCAR-3 ovarian and in the assay with SK-OV-3 ovarian was greater than 100 µM throughout. Moreover, the GI50 with SN12C renal was greater than 100 µM; in the assay on SNB-75 CNS it was 39.9 µM; in the assay with U251 CNS, greater than 100 µM; with UACC-62 melanoma, greater than 100 µM. Also, the TGI with 786-0 renal, in the assay on HCT-116 colon, with HCT-15 colon, in the assay on IGROV1 ovarian, with OVCAR-3 ovarian and in the assay on SK-OV-3 ovarian was greater than 100 µM throughout. For the same molecule, the TGI in the assay with SN12C renal, with SNB-75 CNS, in the assay on U251 CNS and in the assay on UACC-62 melanoma was greater than 100 µM in each case.
As for `COc1cc(/C=C2\CC3C4CC=C5CC(N6CCCC6)CC[C@]5(C)C4CC[C@]3(C)C2OC(C)=O)ccc1OCCN1CCCC1` (stereo partly drawn), the GI50 in the assay on 786-0 renal was 1.73 µM; with HCT-116 colon it was 1.54 µM; with HCT-15 colon it was 1.52 µM; in the assay with IGROV1 ovarian, 1.8 µM; in the assay with OVCAR-3 ovarian, 0.304 µM; in the assay with SK-OV-3 ovarian, 3.28 µM. Also, the GI50 was 4.01 µM in the assay on SN12C renal, 2.51 µM in the assay with SNB-75 CNS, 1.81 µM with U251 CNS and 1.79 µM with UACC-62 melanoma. Besides, the TGI was determined as 3.16 µM in the assay with 786-0 renal; 2.87 µM in the assay on HCT-116 colon; 3.4 µM with HCT-15 colon; 3.63 µM in the assay on IGROV1 ovarian; 2 µM in the assay on OVCAR-3 ovarian; 8.92 µM in the assay with SK-OV-3 ovarian. For the same molecule, the TGI in the assay with SN12C renal is 15.7 µM; in the assay on SNB-75 CNS, 5.09 µM; with U251 CNS it was 3.73 µM; in the assay on UACC-62 melanoma it was 3.45 µM.
Regarding `O=c1c2ccccc2c2c3c1cccc3c1cccc3c(=O)c4ccccc4c2c31`, the TGI in the assay on 786-0 renal, in the assay with HCT-116 colon, in the assay on HCT-15 colon, in the assay on IGROV1 ovarian, in the assay on OVCAR-3 ovarian and in the assay on SK-OV-3 ovarian was greater than 100 µM each time. In addition, the TGI in the assay on SN12C renal, in the assay on SNB-75 CNS, with U251 CNS and in the assay with UACC-62 melanoma was greater than 100 µM in each case.
Turning to `C=CC(=O)Nc1cccc(Nc2nc(Nc3ccc(OCCOC)cc3)ncc2F)c1`, the GI50 is 0.887 µM with 786-0 renal; 1.82 µM in the assay on HCT-116 colon; 1.03 µM with HCT-15 colon; 1.66 µM in the assay on IGROV1 ovarian; 2.47 µM in the assay with OVCAR-3 ovarian; 0.533 µM in the assay with SK-OV-3 ovarian. The GI50 with SN12C renal was 1.77 µM; with SNB-75 CNS, 0.341 µM; in the assay with U251 CNS, 1.89 µM; in the assay with UACC-62 melanoma, 1.93 µM. Also, the TGI in the assay with 786-0 renal was determined as 13.1 µM; in the assay on HCT-116 colon, 13.1 µM; in the assay with HCT-15 colon, 16.1 µM; in the assay with IGROV1 ovarian, 5.45 µM; in the assay with OVCAR-3 ovarian, 16.1 µM; in the assay on SK-OV-3 ovarian, 3.17 µM. The TGI with SN12C renal was found to be 31.4 µM; in the assay with SNB-75 CNS, 2.44 µM; in the assay with U251 CNS it was 16 µM; in the assay with UACC-62 melanoma it was 12.9 µM.
Consider `CC1=Nc2c(ccc3c2C(=O)c2ccccc2C3=O)NC(c2ccncc2)C1` (stereo not drawn), for which the GI50 in the assay on 786-0 renal, in the assay with OVCAR-3 ovarian and with U251 CNS was greater than 100 µM each time. The TGI in the assay on 786-0 renal, in the assay with HCT-116 colon, with HCT-15 colon, with IGROV1 ovarian, in the assay on OVCAR-3 ovarian and in the assay on SK-OV-3 ovarian was greater than 100 µM each time. For the same molecule, the TGI with SN12C renal, in the assay with SNB-75 CNS, with U251 CNS and in the assay with UACC-62 melanoma was greater than 100 µM in each case.
Regarding `COc1ccc2c(-c3cc4ccccc4o3)cc(=O)oc2c1`, the TGI with 786-0 renal is 78.6 µM; with HCT-116 colon, greater than 100 µM; in the assay with HCT-15 colon, greater than 100 µM; with IGROV1 ovarian, greater than 100 µM; with OVCAR-3 ovarian, 30.4 µM; in the assay with SK-OV-3 ovarian it was 52.1 µM. Also, the TGI with SN12C renal is greater than 100 µM; in the assay with SNB-75 CNS, 47.6 µM; in the assay with U251 CNS, greater than 96 µM; in the assay on UACC-62 melanoma, greater than 100 µM.
`CNC(=O)c1ccc(-c2cnc3ncc(Cc4ccc5ncccc5c4)n3n2)cc1F`: the GI50 in the assay on 786-0 renal is 64.3 µM; in the assay with HCT-116 colon it was greater than 100 µM; in the assay with HCT-15 colon it was greater than 100 µM; with IGROV1 ovarian it was greater than 100 µM; in the assay on OVCAR-3 ovarian, greater than 100 µM; in the assay with SK-OV-3 ovarian, greater than 100 µM. Besides, the GI50 is greater than 100 µM in the assay with SN12C renal, 12.7 µM in the assay on SNB-75 CNS, 75.1 µM in the assay with U251 CNS and greater than 100 µM in the assay on UACC-62 melanoma. Besides, the TGI in the assay on 786-0 renal, in the assay with HCT-116 colon, in the assay on HCT-15 colon, in the assay with IGROV1 ovarian, with OVCAR-3 ovarian and in the assay on SK-OV-3 ovarian was greater than 100 µM in each case. In addition, the TGI is greater than 100 µM in the assay on SN12C renal, 54.8 µM in the assay with SNB-75 CNS, greater than 100 µM in the assay with U251 CNS and greater than 100 µM in the assay on UACC-62 melanoma.
For the molecule `CCCCCC(=O)Oc1ccc(/C(=C(\C)c2ccc(OC)cc2)c2ccc(OCCN3CCCCC3)cc2)cc1`, the GI50 with 786-0 renal is 1.98 µM; in the assay with HCT-116 colon, 7.36 µM; in the assay on HCT-15 colon, 2.92 µM; in the assay on IGROV1 ovarian it was 10.4 µM; in the assay with OVCAR-3 ovarian it was 11.6 µM; in the assay on SK-OV-3 ovarian, 10.6 µM. In addition, the GI50 was 10.8 µM with SN12C renal, 10.2 µM in the assay on SNB-75 CNS, 5.13 µM in the assay on U251 CNS and 7.19 µM in the assay on UACC-62 melanoma. The TGI is 5.61 µM in the assay with 786-0 renal; 20.5 µM in the assay with HCT-116 colon; 10.2 µM in the assay with HCT-15 colon; 25.9 µM in the assay on IGROV1 ovarian; 25.2 µM with OVCAR-3 ovarian; 22.7 µM in the assay with SK-OV-3 ovarian. Besides, the TGI in the assay with SN12C renal amounted to 23.5 µM; in the assay with SNB-75 CNS it was 26.3 µM; in the assay with U251 CNS, 17.6 µM; in the assay on UACC-62 melanoma, 20 µM.
